{
  "source": "patent US20120258127A1",
  "about": "(priority 2010, published 2012)",
  "key": {"CSFV isolate": {"tested_on": "CSFV isolate", "design": "species or system pigs", "details": "pig, in vivo"}, "[1]": {"tested_on": "PBMC from vaccinated and challenged pigs", "format": "cell-based"}, "[2]": {"tested_on": "CSFV reference strain Alfort 187", "format": "cell-based, porcine"}},
  "note": "Where two headings read alike, the source gives them in different places.",
  "data": [
    {"molecule": "LRAAMVEYSYIFLDEY [SEQ ID NO:2]", "values": [
      {"measurement": "Occurrence of symptoms of CSFV infection compared with control group", "setting": "CSFV isolate", "result": "reduced occurrence of symptoms of CSFV infection"},
      {"measurement": "Recognition of individual antigenic peptides (IFN-γ)", "setting": "[1]", "result": "recognition"}
    ]},
    {"molecule": "N[C@H](Cc1c[nH]c2ccccc12)C(=O)O", "note": "[D-tryptophan]", "values": [
      {"measurement": "Effect on IFN-γ mediated reduction in the proportion of CSFV infected cells", "setting": "[2]", "result": "unaffected"}
    ]},
    {"molecule": "NKYFEPRDSYFQQYML [SEQ ID NO:1]", "values": [
      {"measurement": "Occurrence of symptoms of CSFV infection compared with control group", "setting": "CSFV isolate", "result": "reduced occurrence of symptoms of CSFV infection"}
    ]},
    {"molecule": "IFN-α", "values": [
      {"measurement": "Proportion of infected cells", "setting": "[2]", "result": "eliminated the infection"}
    ]},
    {"molecule": "L-N-6-(1-iminoethyl)lysine hydrochloride", "values": [
      {"measurement": "Effect on IFN-γ mediated reduction in the proportion of CSFV infected cells", "setting": "[2]; after 48 hours", "result": "unaffected"}
    ]},
    {"molecule": "NIMARTDHPEPIQLAY [SEQ ID NO:3]", "values": [
      {"measurement": "Occurrence of symptoms of CSFV infection compared with control group", "setting": "CSFV isolate", "result": "reduced occurrence of symptoms of CSFV infection"},
      {"measurement": "Recognition of individual antigenic peptides (IFN-γ)", "setting": "[1]", "result": "recognition"}
    ]},
    {"molecule": "N[C@@H](Cc1c[nH]c2ccccc12)C(=O)O", "note": "[L-tryptophan]", "values": [
      {"measurement": "Effect on IFN-γ mediated reduction in the proportion of CSFV infected cells", "setting": "[2]", "result": "unaffected"}
    ]}
  ]
}
